Consider 2 molecules from publication PMC11427828, “The role of chloroplast SRP54 domains and its C-terminal tail region in post- and co-translational protein transport in vivo” (Journal of Experimental Botany, 2024).

Substitutions are numbered along the chain they refer to.

The target of experiment [1] is T1, cpSRP54–His (recombinant mature cpSRP54) (Arabidopsis thaliana, UniProt P37107).
T1 construct: gene FFC; mature protein, residues 79-564 (transit peptide removed), C-terminal His6, E. coli Rosetta (DE3), EDTA-treated then SEC in Mg buffer
T1 sequence (P37107 79-564): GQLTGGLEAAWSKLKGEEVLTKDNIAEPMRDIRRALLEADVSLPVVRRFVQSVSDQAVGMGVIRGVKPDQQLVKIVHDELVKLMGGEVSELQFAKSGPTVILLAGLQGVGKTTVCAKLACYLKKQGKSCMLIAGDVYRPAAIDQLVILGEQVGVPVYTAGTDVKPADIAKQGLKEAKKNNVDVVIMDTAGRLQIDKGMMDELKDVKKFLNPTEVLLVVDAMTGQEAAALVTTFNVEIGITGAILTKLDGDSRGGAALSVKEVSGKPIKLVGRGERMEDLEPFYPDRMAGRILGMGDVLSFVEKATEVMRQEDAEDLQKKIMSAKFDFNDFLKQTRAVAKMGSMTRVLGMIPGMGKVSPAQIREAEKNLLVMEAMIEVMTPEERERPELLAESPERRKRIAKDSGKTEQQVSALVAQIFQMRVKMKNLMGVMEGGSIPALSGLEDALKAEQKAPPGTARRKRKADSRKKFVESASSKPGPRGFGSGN
The experiment in a line: isothermal titration calorimetry. The settings on record: read-out: dissociation constant. Format: binding.

Experiment [2] has as its target T2, cpSRP54–His (recombinant mature cpSRP54) (Arabidopsis thaliana, UniProt P37107, Q185R).
T2 construct: gene FFC; mature protein, residues 79-564 (transit peptide removed), C-terminal His6, E. coli Rosetta (DE3), EDTA-treated then SEC in Mg buffer
T2 sequence (P37107 79-564 Q185R): T1 sequence (P37107 79-564) with Q107R
The experiment can be described thus: isothermal titration calorimetry. Type of experiment: binding. The settings on record: read-out: dissociation constant.

Take `Nc1nc2c(ncn2[C@@H]2O[C@H](COP(=O)(O)OP(=O)(O)O)[C@@H](O)[C@H]2O)c(=O)[nH]1` [GDP]: the Kd in experiment [1] came to 30.2 µM; in experiment [2] it was 30.3 µM.

Consider `Nc1nc2c(ncn2[C@@H]2O[C@H](COP(=O)(O)OP(=O)(O)OP(=O)(O)O)[C@@H](O)[C@H]2O)c(=O)[nH]1` [GTP], for which the Kd in experiment [1] stood at 53.4 µM; in experiment [2], 17.3 µM.
